Data on six molecules can be found in publication PMC11324517 (Nature, 2024).

For data set [1], the target named is T1, ∆-hDAT (Homo sapiens, UniProt Q01959, I248Y). In words: Scintillation proximity assay (SPA), [3H]WIN35428 binding to purified His-tagged ∆-hDAT. More on the design: expressed in transfected cells; host or cells: HEK293 GnTI- cells, BacMam baculovirus transduction. Particulars: β-CFT 0.617 nM, background not subtracted. As to the method:
The various buffer systems were unchanged. YSi-Cu SPA beads at 1 mg ml^−1 were added to ∆-hDAT (30 nM) in SEC buffer (0.02% digitonin, 0.002% CHS, 50 mM HEPES pH 7.8, 200 mM NaCl, 25 µM POPC and 4 µM MRS7292). [^3H]-WIN35428 (82.8 Ci mmol^−1) in 20 mM HEPES pH 7.8 and 100 mM NaCl was used at concentration points ranging from 0 to 150 nM. For background measurement, 100 µM of GBR12909 was added to the assay buffer. Reactants were added to a 96-well isoplate, briefly mixed on a shaker at room temperature, and [^3H] counts were recorded using a MicroBeta2. […] Background subtracted counts were plotted and analysed by a single-site binding model via nonlinear regression analysis in GraphPad Prism v7.05.

The next data set deals with hDAT W84C. Particulars: W84C mutant; cited from earlier work.
Another data set concerns the target T2, ∆-hDAT T211H (Homo sapiens, UniProt Q01959, I248Y/T211H).
T2 construct: expressed in transfected cells; host or cells: HEK293 GnTI- cells, BacMam baculovirus transduction
In words: Zn2+ inhibition of [3H]dopamine uptake (IC50), T211H mutant. The settings on record: for T211H total: [3H]dopamine uptake raw counts, Fig 3c, triplicates, replicates 1-3. It is filed as cell-based. As to the method: (§1) For IC50 measurements of Zn^2+, uptake assays were carried out as described for MRS7292 with the following alterations. The uptake buffer contained EPPS at pH 8.5 in place of HEPES. Cells were washed once with uptake buffer containing 1 mM ethylenediaminetetraacetic acid (EDTA) to chelate ambient Zn^2+ from the cell growth medium, followed by second wash without EDTA. Cells were then incubated for 15 min in uptake buffers containing 0.3–300 µM added Zn^2+ for ∆-hDAT, 0.1–100 µM added Zn^2+ for T211H, and 0.03–30 µM added Zn^2+ for T211E. […] The IC50 of Zn^2+ for the T211E mutant was also measured at pH 7.5 to obtain a more complete inhibition curve.

The next data set has as its target T3, ∆-hDAT T211E (Homo sapiens, UniProt Q01959, I248Y/T211E).
T3 construct: expressed in transfected cells; host or cells: HEK293 GnTI- cells, BacMam baculovirus transduction
In words: Zn2+ inhibition of [3H]dopamine uptake (IC50), T211E mutant. Particulars: for T211E total: [3H]dopamine uptake raw counts, Fig 3c, triplicates, replicates 1-3. It is filed as cell-based. As to the method:
as §1

Another data set relates to hDAT D191N. Particulars: D191 mutated to asparagine; cited from earlier work.
For data set [2], the target named is T1, ∆-hDAT. In words: Zn2+ inhibition of [3H]dopamine uptake (IC50), ∆-hDAT. The settings on record: [3H]dopamine uptake raw counts, Fig 3c, triplicates, replicates 1-3. It is filed as cell-based. Further details: expressed in transfected cells; host or cells: HEK293 GnTI- cells, BacMam baculovirus transduction. As to the method: as §1
The target in data set [3] is T1, ∆-hDAT. Particulars: ∆-hDAT, HEK293 GnTI− cells, mean ± s.d., n = 3.
Another data set concerns the target full-length hDAT (Homo sapiens, UniProt Q01959). Particulars: full-length hDAT, HEK293 GnTI− cells, mean ± s.d., n = 3.
Substrate in data set [4]: NCCc1ccc(O)c(O)c1
In words: cells, lysate or membranes. Particulars: HEK293 GnTI− cells, Michaelis–Menten model, mean ± s.d., n = 3, pH 7.4.

“And” between values parts separate entries of the source, which are not always exact repeats. Identical values can stand only once.

T3 sequence (Q01959 57-620 T211E/I248Y limits assumed): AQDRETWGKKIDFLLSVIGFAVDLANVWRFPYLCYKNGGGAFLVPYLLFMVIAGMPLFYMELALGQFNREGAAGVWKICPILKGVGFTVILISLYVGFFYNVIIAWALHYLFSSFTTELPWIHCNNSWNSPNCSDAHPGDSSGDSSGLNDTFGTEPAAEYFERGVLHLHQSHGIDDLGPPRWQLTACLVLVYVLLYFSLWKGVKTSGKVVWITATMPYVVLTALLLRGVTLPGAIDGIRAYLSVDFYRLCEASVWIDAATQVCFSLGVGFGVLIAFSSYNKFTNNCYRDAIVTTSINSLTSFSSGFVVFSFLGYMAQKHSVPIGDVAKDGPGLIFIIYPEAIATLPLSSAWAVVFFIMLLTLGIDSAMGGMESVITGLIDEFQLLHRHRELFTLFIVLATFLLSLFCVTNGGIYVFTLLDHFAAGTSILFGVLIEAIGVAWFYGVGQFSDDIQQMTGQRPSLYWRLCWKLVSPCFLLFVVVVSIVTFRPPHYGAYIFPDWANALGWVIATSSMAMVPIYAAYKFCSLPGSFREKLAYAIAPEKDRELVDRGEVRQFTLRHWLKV
T2 sequence (Q01959 57-620 T211H/I248Y limits assumed): as the sequence (Q01959 57-620 T211E/I248Y limits assumed) above, with E155H counted along it

Take `COC(=O)C1C(c2ccc(F)cc2)CC2CCC1N2C` (single isomer, unassigned; (-)) [β-CFT, (–)-2-β-carbomethoxy-3-β-(4-fluorophenyl)tropane]: at ∆-hDAT [1], the “SPA total counts, binding to purified ∆-hDAT” value is 204 and 169 and 192 and 177 and 171 and 174 and 189 and 179.

`CCc1ccc2[nH]c3nc(SCCNS(=O)(=O)c4ccc(NC(C)=O)cc4)nnc3c2c1` [KM822]: in the data set on hDAT W84C, the “effect of mutation on potency of KM822” value is “increases the potency”.

In the case of `[Zn+2]` [Zn^2+], the T211H total at ∆-hDAT T211H (Added Zn2+ 0.14 µM) is 2307 and 2405 and 2334 and 1111 and 679 and 946 and 2428 and 2969 and 2868; at ∆-hDAT T211H (Added Zn2+ 0.41 µM), 1917 and 1650 and 1702 and 922 and 890 and 993 and 2213 and 1804 and 1794; on ∆-hDAT T211H (Added Zn2+ 1.23 µM) it was 1146 and 1389 and 1404 and 571 and 540 and 534 and 1806 and 1414 and 1274; on ∆-hDAT T211H (Added Zn2+ 3.70 µM) it was 951 and 892 and 809 and 316 and 317 and 411 and 837 and 824 and 1109; on ∆-hDAT T211H (Added Zn2+ 11.11 µM), 810 and 577 and 717 and 230 and 281 and 267 and 486 and 515 and 477; on ∆-hDAT T211H (Added Zn2+ 33.33 µM), 528 and 524 and 546 and 246 and 210 and 198 and 441 and 462 and 475. On ∆-hDAT T211H (Added Zn2+ 100.00 µM), the T211H total is 419 and 394 and 350 and 158 and 145 and 163 and 252 and 226 and 267. For the same molecule, the “IC50 of Zn2+ lower than that of ∆-hDAT” value on ∆-hDAT T211H (T211H mutant, [3H]dopamine uptake, pH 8.5) is recorded as roughly 20 fold; at ∆-hDAT T211E (T211E mutant, [3H]dopamine uptake, pH 8.5) it was “around 100 fold”. The T211E total on ∆-hDAT T211E (Added Zn2+ 0.0457 µM) is 1043 and 1084 and 946 and 1214 and 1350 and 1252 and 1437 and 1516 and 1325; on ∆-hDAT T211E (Added Zn2+ 0.14 µM) it was 623 and 609 and 563 and 777 and 766 and 728 and 853 and 1009 and 867; at ∆-hDAT T211E (Added Zn2+ 0.41 µM) it was 635 and 450 and 501 and 372 (2×) and 389 and 527 and 516 and 677; on ∆-hDAT T211E (Added Zn2+ 1.23 µM) it was 459 and 447 and 440 and 286 and 276 and 244 and 481 and 403 (2×); at ∆-hDAT T211E (Added Zn2+ 3.70 µM) it was 335 and 268 and 302 and 159 and 217 and 381 and 284 and 246 and 231; on ∆-hDAT T211E (Added Zn2+ 11.11 µM), 323 and 314 and 345 and 238 and 249 and 229 and 277 and 278. At ∆-hDAT T211E (Added Zn2+ 33.33 µM), the T211E total is 416 and 290 and 362 and 261 and 242 and 215 and 342 and 313 and 301. Further, in the data set on hDAT D191N, the “decrease in apparent Zn2+ affinity” value is recorded as “apparent threefold decrease”. Besides, the Δ-hDAT total counts at ∆-hDAT [2] (Added Zn2+ 0.41 µM) is 3458 counts and 3089 counts and 3357 counts and 3017 counts and 2960 counts and 2624 counts and 3155 counts and 3308 counts and 3482 counts; on ∆-hDAT [2] (Added Zn2+ 1.23 µM), 3105 counts and 3118 counts and 3175 counts and 2225 counts and 1943 counts and 2195 counts and 3616 counts and 3027 counts and 2892 counts; at ∆-hDAT [2] (Added Zn2+ 3.70 µM), 1979 counts and 2178 counts and 2228 counts and 2099 counts and 1947 counts and 1866 counts and 2321 counts and 2149 counts and 1943 counts; at ∆-hDAT [2] (Added Zn2+ 11.11 µM), 2029 counts and 1818 counts and 1787 counts and 1695 counts and 1560 counts and 1477 counts and 1550 counts and 1703 counts and 2026 counts; on ∆-hDAT [2] (Added Zn2+ 33.33 µM) it was 1238 counts and 1123 counts and 1240 counts and 1063 counts and 1147 counts and 906 counts and 1573 counts and 1503 counts and 1606 counts; on ∆-hDAT [2] (Added Zn2+ 100.00 µM), 771 counts and 681 counts and 793 counts and 660 counts and 598 counts and 682 counts and 1221 counts and 1015 counts and 885 counts. The Δ-hDAT total counts at ∆-hDAT [2] (Added Zn2+ 300.00 µM) was 402 counts and 451 counts and 435 counts and 386 counts and 349 counts and 353 counts and 418 counts and 427 counts.

For `NCCc1ccc(O)c(O)c1` [[^3H]dopamine, dopamine], the “reaction rate at infinite substrate concentration (Vmax) for [3H]dopamine uptake” value is on record as 342.8 ± 11.7 fmol min^−1 per well on ∆-hDAT [3] and 190.9 ± 10.7 fmol min^−1 per well at full-length hDAT.

B1: full-length hDAT (Homo sapiens) (protein)
chain: MSKSKCSVGLMSSVVAPAKEPNAVGPKEVELILVKEQNGVQLTSSTLTNPRQSPVEAQDRETWGKKIDFLLSVIGFAVDLANVWRFPYLCYKNGGGAFLVPYLLFMVIAGMPLFYMELALGQFNREGAAGVWKICPILKGVGFTVILISLYVGFFYNVIIAWALHYLFSSFTTELPWIHCNNSWNSPNCSDAHPGDSSGDSSGLNDTFGTTPAAEYFERGVLHLHQSHGIDDLGPPRWQLTACLVLVIVLLYFSLWKGVKTSGKVVWITATMPYVVLTALLLRGVTLPGAIDGIRAYLSVDFYRLCEASVWIDAATQVCFSLGVGFGVLIAFSSYNKFTNNCYRDAIVTTSINSLTSFSSGFVVFSFLGYMAQKHSVPIGDVAKDGPGLIFIIYPEAIATLPLSSAWAVVFFIMLLTLGIDSAMGGMESVITGLIDEFQLLHRHRELFTLFIVLATFLLSLFCVTNGGIYVFTLLDHFAAGTSILFGVLIEAIGVAWFYGVGQFSDDIQQMTGQRPSLYWRLCWKLVSPCFLLFVVVVSIVTFRPPHYGAYIFPDWANALGWVIATSSMAMVPIYAAYKFCSLPGSFREKLAYAIAPEKDRELVDRGEVRQFTLRHWLKV
On to B1, for which, in [4] (other: full-length hDAT), the Km was 0.56 ± 0.13 µM.

B2: ∆-hDAT (Homo sapiens; I248Y) (protein)
chain: AQDRETWGKKIDFLLSVIGFAVDLANVWRFPYLCYKNGGGAFLVPYLLFMVIAGMPLFYMELALGQFNREGAAGVWKICPILKGVGFTVILISLYVGFFYNVIIAWALHYLFSSFTTELPWIHCNNSWNSPNCSDAHPGDSSGDSSGLNDTFGTTPAAEYFERGVLHLHQSHGIDDLGPPRWQLTACLVLVYVLLYFSLWKGVKTSGKVVWITATMPYVVLTALLLRGVTLPGAIDGIRAYLSVDFYRLCEASVWIDAATQVCFSLGVGFGVLIAFSSYNKFTNNCYRDAIVTTSINSLTSFSSGFVVFSFLGYMAQKHSVPIGDVAKDGPGLIFIIYPEAIATLPLSSAWAVVFFIMLLTLGIDSAMGGMESVITGLIDEFQLLHRHRELFTLFIVLATFLLSLFCVTNGGIYVFTLLDHFAAGTSILFGVLIEAIGVAWFYGVGQFSDDIQQMTGQRPSLYWRLCWKLVSPCFLLFVVVVSIVTFRPPHYGAYIFPDWANALGWVIATSSMAMVPIYAAYKFCSLPGSFREKLAYAIAPEKDRELVDRGEVRQFTLRHWLKV
In the case of B2, the Km in data set [4] (other: ∆-hDAT) turned out to be 0.55 ± 0.07 µM.
